Assay results taken from patent US4663327A, “1-heteroaryl-4-aryl-pyrazolin-5-ones” (priority 1984, dated 1987).
In brackets after ≈: the same amount, converted by molar mass.

Experiments:
Pyricularia oryzae [1] = assay type: in vivo; conditions: rice, soil watered 7 days before inoculation, disease infestation 4 days after inoculation
Phytophthora infestans = assay type: in vivo; conditions: tomato, sprayed, evaluation 3 days after inoculation
Pyricularia oryzae [2] = assay type: in vivo; conditions: rice, sprayed, disease infestation 4 days after inoculation
Botrytis cinerea = assay: Botrytis test (BEAN)/protective; assay type: in vivo; conditions: sprayed, infected spots on leaves evaluated 3 days after inoculation
Procedure: Botrytis test (BEAN)/protective Solvent: 4.7 parts by weight of acetone Emulsifier: 0.3 parts by weight alkyl aryl polyglycol ether To produce a suitable preparation of active compound, 1 pat by weight of active compound is mixed with the stated amounts of solvent and emulsifier, and the concentrate is diluted with water to the desired concentration. To test for protective activity, young plants are sprayed with the preparation of active compound until dripping wet. After the spray coating has dried on, 2 small pieces of agar covered with Botrytis cinerea are placed on each leaf. The inoculated plants are placed in a darkened humidity chamber at 20° C. 3 days after the inoculation, the size of the infected spots on the leaves is evaluated.

Leptosphaeria nodorum = Leptosphaeria nodorum test (wheat)/protective; assay type: in vivo; conditions: sprayed, evaluation 10 days after inoculation
Procedure: Leptosphaeria nodorum test (wheat)/protective Solvent: 100 parts by weight of dimethylformamide Emulsifier: 0.25 parts by weight of alkylaryl polyglycol ether To produce a suitable preparation of active compound, 1 part by weight of active compound is mixed with the stated amounts of solvent and emulsifier, and the concentrate is diluted with water to the desired concentration. To test for protective activity, young plants are sprayed with the preparation of active compound until dew-moist. After the spray coating has dried on, the plants are sprayed with a conidia suspension of Leptosphaeria nodorum. The plants remain for 48 hours in an incubation cabinet at 20° C. and 100% relative atmospheric humidity. The plants are placed in a greenhouse at a temperature of about 15° C. and a relative atmospheric humidity of about 80%. Evaluation is effected 10 days after the inoculation.

Cochliobolus sativus = Cochliobolus sativus test (barley)/protective; assay type: in vivo; conditions: sprayed, evaluation 7 days after inoculation
Procedure: Cochliobolus sativus test (barley)/protective Solvent: 100 parts by weight of dimethylformamide Emulsifier: 0.25 parts by weight of alkylaryl polyglycol ether To produce a suitable preparation of active compound, 1 part by weight of active compound is mixed with the stated amounts of solvent and emulsifier, and the concentrate is diluted with water to the desired concentration. To test for protective activity, young plants are sprayed with the preparation of active compound until dew-moist. After the spray coating has dried on, the plants are sprayed with a conidia suspension of Cochliobolus sativus. The plants remain in an incubation cabinet for 48 hours at 20° C. and 100% relative atmospheric humidity. The plants are placed in a greenhouse at a temperature of about 20° C. and a relative atmospheric humidity of about 80%. Evaluation is carried out 7 days after the inoculation.

Aspergillus niger = assay: MIC on fungi in agar; conditions: 336 h
Procedure: (§1) After storage for 2 weeks at 28° C. and 60 to 70% relative atmospheric humidity, the MIC is determined.

Trichoderma viride = assay: MIC on fungi in agar; conditions: 336 h
Procedure: as §1

Coniophora puteana = assay: MIC on fungi in agar; conditions: 336 h
Procedure: as §1

Chaetomium globosum = assay: MIC on fungi in agar; conditions: 336 h
Procedure: as §1

Penicillium glaucum = assay: MIC on fungi in agar; conditions: 336 h
Procedure: as §1

Sclerophoma pityophila = assay: MIC on fungi in agar; conditions: Sydowia polyspora, 336 h
Procedure: as §1

Lentinus tigrinus = assay: MIC on fungi in agar; conditions: 336 h
Procedure: as §1

slime organisms = assay: Action against slime organisms in Allen's nutrient solution (MIC); conditions: 504 h
Procedure: Substances according to the invention, dissolved in a small amount of acetone, are used in concentrations of, in each case, 0.1 to 100 mg/l in Allen's nutrient solution (Arch. Mikrobiol. 17, 34 to 53 (1952)), which contains, in 4 l of sterile water, 0.2 g of ammonium chloride, 4.0 g of sodium nitrate, 1.0 g of dipotassium hydrogen phosphate, 0.2 g of calcium chloride, 2.05 g of magnesium sulphate, 0.02 g of iron chloride and 1% of caprolactam. Shortly beforehand, the nutrient solution is infected with slime organisms (approx. 10^6 organisms/ml) which have been isolated from the spinning water circulations used in the manufacture of polyamide.

Polyporus versicolor = assay: MIC on fungi in agar; conditions: Trametes versicolor, 336 h
Procedure: as §1

Alternaria tenuis = assay: MIC on fungi in agar; conditions: Alternaria alternata, 336 h
Procedure: as §1

Aureobasidium pullulans = assay: MIC on fungi in agar; conditions: 336 h
Procedure: as §1

Drechslera graminea = Drechslera graminea test (barley)/seed treatment; assay type: in vivo, Drechslera graminea (syn. Helminthosporium gramineum); conditions: seed dry dressing, about 3 weeks after sowing
Procedure: Drechslera […] (barley)/seed treatment (syn. Helminthosporium gramineum) The active compounds are used as dry dressings. These are prepared by extending the paticular active compound with a ground mineral to give a finely pulverulent mixture, which ensures uniform distribution on the seed surface. To apply the dressing, the infected seed is shaken with the dressing in a closed glass flask for 3 minutes. The seed is embedded in sieved, moist standard soil and is exposed to a temperature of 4° C. in closed Petri dishes in a refrigerator for 10 days. Germination of the barley, and possibly also of the fungus spores, is thereby initiated. 2 batches of 50 grains of the pregerminated barley are subsequently sown 3 cm deep in standard soil and are cultivated in a greenhouse at a temperature of about 18° C., in seedboxes which are exposed to light for 15 hours daily. About 3 weeks after sowing, the plants are evaluated for symptons of stripe disease.

## O=c1c(-c2cccc3ccccc23)c[nH]n1-c1ncccn1 [Example 105]
Pyricularia oryzae [1]
  systemic activity: clearly superior activity compared with the prior art
Phytophthora infestans
  protective activity: clearly superior activity compared with the prior art
Pyricularia oryzae [2]
  protective activity: clearly superior activity compared with the prior art

## O=c1c(-c2cc(C(F)(F)F)ccc2Cl)c[nH]n1-c1ncccn1 [Example 102]
Pyricularia oryzae [1]
  systemic activity: clearly superior activity compared with the prior art
Phytophthora infestans
  protective activity: clearly superior activity compared with the prior art
Botrytis cinerea
  protective activity: clearly superior activity compared with the prior art
Pyricularia oryzae [2]
  protective activity: clearly superior activity compared with the prior art

## O=c1c(-c2ccc(OC(F)(F)F)cc2)c[nH]n1-c1ccccn1 [Example 18]
Pyricularia oryzae [1]
  systemic activity: clearly superior activity compared with the prior art
Leptosphaeria nodorum
  protective activity: clearly superior activity compared with the prior art
Cochliobolus sativus
  protective activity: clearly superior activity compared with the prior art

## O=c1c(-c2ccccc2)c[nH]n1-c1ccccn1 [Example 4, 1-pyrid-2-yl-4-phenyl-pyrazolin-5-one]
Aspergillus niger
  MIC: 7.5 µg/mL (≈ 31.6 µM)
Trichoderma viride
  MIC: 200 µg/mL (≈ 843 µM)
Coniophora puteana
  MIC: 5 µg/mL (≈ 21.1 µM)
Chaetomium globosum
  MIC: 1.5 µg/mL (≈ 6.32 µM)
Penicillium glaucum
  MIC: 10 µg/mL (≈ 42.1 µM)
Sclerophoma pityophila
  MIC: 10 µg/mL (≈ 42.1 µM)
Lentinus tigrinus
  MIC: 75 µg/mL (≈ 316 µM)
Slime organisms
  MIC: 15 µg/mL (≈ 63.2 µM)
Polyporus versicolor
  MIC: 35 µg/mL (≈ 148 µM)
Alternaria tenuis
  MIC: 50 µg/mL (≈ 211 µM)
Aureobasidium pullulans
  MIC: 100 µg/mL (≈ 421 µM)

## Cc1ccccc1-c1c[nH]n(-c2ccccn2)c1=O [Example 21]
Aspergillus niger
  MIC: 7.5 µg/mL (≈ 29.8 µM)
Pyricularia oryzae [1]
  systemic activity: clearly superior activity compared with the prior art
Trichoderma viride
  MIC: 50 µg/mL (≈ 199 µM)
Coniophora puteana
  MIC: 5 µg/mL (≈ 19.9 µM)
Chaetomium globosum
  MIC: 0.75 µg/mL (≈ 2.98 µM)
Penicillium glaucum
  MIC: 7.5 µg/mL (≈ 29.8 µM)
Botrytis cinerea
  protective activity: clearly superior activity compared with the prior art
Sclerophoma pityophila
  MIC: 35 µg/mL (≈ 139 µM)
Drechslera graminea
  activity, symptoms of stripe disease: clearly superior activity compared with the prior art
Cochliobolus sativus
  protective activity: clearly superior activity compared with the prior art
Lentinus tigrinus
  MIC: 50 µg/mL (≈ 199 µM)
Polyporus versicolor
  MIC: 7.5 µg/mL (≈ 29.8 µM)
Alternaria tenuis
  MIC: 10 µg/mL (≈ 39.8 µM)
Aureobasidium pullulans
  MIC: 35 µg/mL (≈ 139 µM)

## O=c1c(-c2ccc(SC(F)(F)F)cc2)c[nH]n1-c1ncccn1 [Example 94]
Pyricularia oryzae [1]
  systemic activity: clearly superior activity compared with the prior art
Botrytis cinerea
  protective activity: clearly superior activity compared with the prior art

## Cc1cccc(-c2c[nH]n(-c3ncccn3)c2=O)c1 [Example 97]
Aspergillus niger
  MIC: 10 µg/mL (≈ 39.6 µM)
Pyricularia oryzae [1]
  systemic activity: clearly superior activity compared with the prior art
Trichoderma viride
  MIC: 75 µg/mL (≈ 297 µM)
Coniophora puteana
  MIC: 2 µg/mL (≈ 7.93 µM)
Chaetomium globosum
  MIC: 1 µg/mL (≈ 3.96 µM)
Penicillium glaucum
  MIC: 10 µg/mL (≈ 39.6 µM)
Sclerophoma pityophila
  MIC: 20 µg/mL (≈ 79.3 µM)
Lentinus tigrinus
  MIC: 10 µg/mL (≈ 39.6 µM)
Polyporus versicolor
  MIC: 5 µg/mL (≈ 19.8 µM)
Alternaria tenuis
  MIC: 50 µg/mL (≈ 198 µM)
Aureobasidium pullulans
  MIC: 50 µg/mL (≈ 198 µM)

## Cc1ccc(-c2c[nH]n(-c3ccccn3)c2=O)cc1 [Example 23]
Aspergillus niger
  MIC: 7.5 µg/mL (≈ 29.8 µM)
Trichoderma viride
  MIC: 1000 µg/mL (≈ 3980 µM)
Coniophora puteana
  MIC: 35 µg/mL (≈ 139 µM)
Chaetomium globosum
  MIC: 0.5 µg/mL (≈ 1.99 µM)
Penicillium glaucum
  MIC: 5 µg/mL (≈ 19.9 µM)
Sclerophoma pityophila
  MIC: 20 µg/mL (≈ 79.6 µM)
Lentinus tigrinus
  MIC: 75 µg/mL (≈ 298 µM)
Slime organisms
  MIC: 7.5 µg/mL (≈ 29.8 µM)
Polyporus versicolor
  MIC: 3.5 µg/mL (≈ 13.9 µM)
Alternaria tenuis
  MIC: 75 µg/mL (≈ 298 µM)
Aureobasidium pullulans
  MIC: 50 µg/mL (≈ 199 µM)

## O=c1c(-c2ccc(F)cc2)c[nH]n1-c1ncccn1 [Example 83]
Aspergillus niger
  MIC: 15 µg/mL (≈ 58.5 µM)
Trichoderma viride
  MIC: 75 µg/mL (≈ 293 µM)
Coniophora puteana
  MIC: 5 µg/mL (≈ 19.5 µM)
Chaetomium globosum
  MIC: 3.5 µg/mL (≈ 13.7 µM)
Penicillium glaucum
  MIC: 20 µg/mL (≈ 78.1 µM)
Sclerophoma pityophila
  MIC: 5 µg/mL (≈ 19.5 µM)
Lentinus tigrinus
  MIC: 50 µg/mL (≈ 195 µM)
Slime organisms
  MIC: 35 µg/mL (≈ 137 µM)
Polyporus versicolor
  MIC: 35 µg/mL (≈ 137 µM)
Alternaria tenuis
  MIC: 50 µg/mL (≈ 195 µM)
Aureobasidium pullulans
  MIC: 50 µg/mL (≈ 195 µM)
